Experimental data reported in paper PMC7044277 (Nature Communications, 2020).
“And” between values parts separate entries of the source, which are not always exact repeats. Identical values can stand only once.

What was measured:
DRD2 (D2 long receptor) = DRD2 (D2 long receptor) (Homo sapiens, UniProt P14416); assay: β-arrestin2 recruitment (Tango), HTLA cells; type: cell-based; conditions: for Response, Fig_S11c dose-response: individual replicates
DRD2 F1103.28A [1] = molecular target: T1, DRD2 F1103.28A (Homo sapiens, UniProt P14416, F110A); type: binding; set-up: expressed in transfected cells; host or cells: HEK293T (ATCC CRL-11268)
DRD2 F1103.28L = molecular target: T2, DRD2 F1103.28L (Homo sapiens, UniProt P14416, F110L); assay: β-arrestin2 recruitment (Tango), mutant; type: cell-based
T2 construct: expressed in transfected cells; host or cells: HEK293T (ATCC CRL-11268)

[2] = molecular target: DRD2 (D2 long receptor) wild-type (Homo sapiens, UniProt P14416); assay: Radioligand competition binding, [3H]-N-methylspiperone, HEK293T membranes; conditions: DRD2; [3H]-methylspiperone (0.8-1.0 nM); read-out: Ki
DRD2 F1103.28A [3] = molecular target: T1, DRD2 F1103.28A; assay: β-arrestin2 recruitment (Tango), mutant; type: cell-based; set-up: expressed in transfected cells; host or cells: HEK293T (ATCC CRL-11268)

T1 sequence (P14416 whole entry F110A): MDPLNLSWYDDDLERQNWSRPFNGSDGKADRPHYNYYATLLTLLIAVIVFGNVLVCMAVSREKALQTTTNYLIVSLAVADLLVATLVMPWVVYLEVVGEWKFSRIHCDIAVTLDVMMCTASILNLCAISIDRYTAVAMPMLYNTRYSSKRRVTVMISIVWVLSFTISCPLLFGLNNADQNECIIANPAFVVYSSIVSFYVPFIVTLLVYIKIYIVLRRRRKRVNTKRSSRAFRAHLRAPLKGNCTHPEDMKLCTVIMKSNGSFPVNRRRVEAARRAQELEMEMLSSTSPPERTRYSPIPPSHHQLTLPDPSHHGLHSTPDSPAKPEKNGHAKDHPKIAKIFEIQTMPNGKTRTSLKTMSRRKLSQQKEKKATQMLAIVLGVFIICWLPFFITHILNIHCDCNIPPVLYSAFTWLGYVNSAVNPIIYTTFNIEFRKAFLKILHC
DRD2 (D2 long receptor), sequence (P14416 whole entry): as the sequence (P14416 whole entry F110A) above, with A110F counted along it
DRD2 (D2 long receptor) wild-type, sequence (P14416 whole entry): as the sequence (P14416 whole entry F110A) above, with A110F counted along it
T2 sequence (P14416 whole entry F110L): as the sequence (P14416 whole entry F110A) above, with A110L counted along it

SMILES: CCOc1cccc2cc(C(C)NCC3(O)CCCCC3)oc12 (stereo not drawn) [O4LE6]
- EC50 (DRD2 (D2 long receptor); DRD2, β-arrestin2 recruitment (Tango), read-out: EC50 ± SEM): 0.0432 ± 0.0123 µM
- response, Fig_S11c dose-response source data (DRD2 (D2 long receptor); Fig_S11c, Log[Drug] -5, replicate values): 112.633 and 105.275 and 98.5438 and 105.099 and 112.565
- response, Fig_S11e dose-response source data (DRD2 (D2 long receptor); Log[Drug] -6.52, replicate values): 78.7922
- response, Fig_S11e dose-response source data (DRD2 (D2 long receptor); Log[Drug] -7, replicate values): 72.0078 and 74.6368 and 66.9645 and 59.2359 and 63.6719 and 58.7266 and 59.326 and 73.941 and 65.8379
- response, Fig_S11e dose-response source data (DRD2 (D2 long receptor); Log[Drug] -7.52, replicate values): 37.8418 and 44.9592 and 58.6118 and 43.0054 and 55.0074 and 48.586 and 48.419 and 72.5528 and 64.0624
- response, Fig_S11e dose-response source data (DRD2 (D2 long receptor); Log[Drug] -8, replicate values): 15.3268 and 15.1148 and 16.7449 and 27.4037 and 26.6311 and 23.8074 and 19.9269 and 24.9446 and 21.2413
- response, Fig_S11e dose-response source data (DRD2 (D2 long receptor); Log[Drug] -8.52, replicate values): 4.375 and 3.995 and 5.741 and 6.567 and 6.611 and 6.201 and 5.912 and 5.884 and 4.408
- response, Fig_S11e dose-response source data (DRD2 (D2 long receptor); Log[Drug] -9, replicate values): 3.657 and 3.173 and 3.675 and 2.9749 and 3.073 and 3.47 and 2.665 and 3.951 and 5.063
- response, Fig_S11e dose-response source data (DRD2 (D2 long receptor); Log[Drug] -9.52, replicate values): 2.783 and 2.8126 and 2.809 and 2.846 and 2.583 and 2.72 and 1.765 and 1.2028 and 2.471
- response, Fig_S11e dose-response source data (DRD2 (D2 long receptor); Log[Drug] -10, replicate values): 3.027 and 2.494 and 2.707 and 2.723 and 2.793 and 2.57 and 1.765 and 1.586 and 1.567
- response, Fig_S11e dose-response source data (DRD2 (D2 long receptor); Log[Drug] -10.52, replicate values): 2.869 and 2.577 and 2.7076 and 2.741 and 2.285 and 2.767 and 1.576 and 1.95 and 2.499
- response, Fig_S11e dose-response source data (DRD2 (D2 long receptor); Log[Drug] -11, replicate values): 2.286 and 2.31 and 2.497 and 2.358 and 2.303 and 2.397 and 3.984 and 1.567 and 2.499
- response, Fig_S11e dose-response source data (DRD2 (D2 long receptor); Log[Drug] -11.52, replicate values): 2.417 and 3.403 and 2.6551 and 2.344 and 2.523 and 2.357 and 1.752 and 2.8723 and 2.669
- response, Fig_S11e dose-response source data (DRD2 (D2 long receptor); Log[Drug] -12, replicate values): 2.236 and 2.366 and 2.369 and 2.676 and 2.167 and 2.127 and 2.148 and 1.023 and 3.799
- Emax (DRD2 (D2 long receptor); HTLA, read-out: Emax relative to quinpirole response, DRD2, Tango): 105%
- β-arrestin2 recruitment response at DRD2 (source data, replicate values) (DRD2 (D2 long receptor); Log[Drug] -6.52): 78.7922
- Response, Fig_S11c dose-response (DRD2 (D2 long receptor); Log[Drug] -6.52): 78.7922
- β-arrestin2 recruitment response at DRD2 (source data, replicate values) (DRD2 (D2 long receptor); Log[Drug] -7): 72.0078 and 74.6368 and 66.9645 and 59.2359 and 63.6719 and 58.7266 and 59.326 and 73.941 and 65.8379
- Response, Fig_S11c dose-response (DRD2 (D2 long receptor); Log[Drug] -7): 72.0078 and 74.6368 and 66.9645 and 59.2359 and 63.6719 and 58.7266 and 59.326 and 73.941 and 65.8379
- β-arrestin2 recruitment response at DRD2 (source data, replicate values) (DRD2 (D2 long receptor); Log[Drug] -7.52): 37.8418 and 44.9592 and 58.6118 and 43.0054 and 55.0074 and 48.586 and 48.419 and 72.5528 and 64.0624
- Response, Fig_S11c dose-response (DRD2 (D2 long receptor); Log[Drug] -7.52): 37.8418 and 44.9592 and 58.6118 and 43.0054 and 55.0074 and 48.586 and 48.419 and 72.5528 and 64.0624
- β-arrestin2 recruitment response at DRD2 (source data, replicate values) (DRD2 (D2 long receptor); Log[Drug] -8): 15.3268 and 15.1148 and 16.7449 and 27.4037 and 26.6311 and 23.8074 and 19.9269 and 24.9446 and 21.2413
- Response, Fig_S11c dose-response (DRD2 (D2 long receptor); Log[Drug] -8): 15.3268 and 15.1148 and 16.7449 and 27.4037 and 26.6311 and 23.8074 and 19.9269 and 24.9446 and 21.2413
- β-arrestin2 recruitment response at DRD2 (source data, replicate values) (DRD2 (D2 long receptor); Log[Drug] -8.52): 4.375 and 3.995 and 5.741 and 6.567 and 6.611 and 6.201 and 5.912 and 5.884 and 4.408
- Response, Fig_S11c dose-response (DRD2 (D2 long receptor); Log[Drug] -8.52): 4.375 and 3.995 and 5.741 and 6.567 and 6.611 and 6.201 and 5.912 and 5.884 and 4.408
- β-arrestin2 recruitment response at DRD2 (source data, replicate values) (DRD2 (D2 long receptor); Log[Drug] -9): 3.657 and 3.173 and 3.675 and 2.9749 and 3.073 and 3.47 and 2.665 and 3.951 and 5.063
- Response, Fig_S11c dose-response (DRD2 (D2 long receptor); Log[Drug] -9): 3.657 and 3.173 and 3.675 and 2.9749 and 3.073 and 3.47 and 2.665 and 3.951 and 5.063
- β-arrestin2 recruitment response at DRD2 (source data, replicate values) (DRD2 (D2 long receptor); Log[Drug] -9.52): 2.783 and 2.8126 and 2.809 and 2.846 and 2.583 and 2.72 and 1.765 and 1.2028 and 2.471
- Response, Fig_S11c dose-response (DRD2 (D2 long receptor); Log[Drug] -9.52): 2.783 and 2.8126 and 2.809 and 2.846 and 2.583 and 2.72 and 1.765 and 1.2028 and 2.471
- β-arrestin2 recruitment response at DRD2 (source data, replicate values) (DRD2 (D2 long receptor); Log[Drug] -10): 3.027 and 2.494 and 2.707 and 2.723 and 2.793 and 2.57 and 1.765 and 1.586 and 1.567
- Response, Fig_S11c dose-response (DRD2 (D2 long receptor); Log[Drug] -10): 3.027 and 2.494 and 2.707 and 2.723 and 2.793 and 2.57 and 1.765 and 1.586 and 1.567
- β-arrestin2 recruitment response at DRD2 (source data, replicate values) (DRD2 (D2 long receptor); Log[Drug] -10.52): 2.869 and 2.577 and 2.7076 and 2.741 and 2.285 and 2.767 and 1.576 and 1.95 and 2.499
- Response, Fig_S11c dose-response (DRD2 (D2 long receptor); Log[Drug] -10.52): 2.869 and 2.577 and 2.7076 and 2.741 and 2.285 and 2.767 and 1.576 and 1.95 and 2.499
- β-arrestin2 recruitment response at DRD2 (source data, replicate values) (DRD2 (D2 long receptor); Log[Drug] -11): 2.286 and 2.31 and 2.497 and 2.358 and 2.303 and 2.397 and 3.984 and 1.567 and 2.499
- Response, Fig_S11c dose-response (DRD2 (D2 long receptor); Log[Drug] -11): 2.286 and 2.31 and 2.497 and 2.358 and 2.303 and 2.397 and 3.984 and 1.567 and 2.499
- β-arrestin2 recruitment response at DRD2 (source data, replicate values) (DRD2 (D2 long receptor); Log[Drug] -11.52): 2.417 and 3.403 and 2.6551 and 2.344 and 2.523 and 2.357 and 1.752 and 2.8723 and 2.669
- Response, Fig_S11c dose-response (DRD2 (D2 long receptor); Log[Drug] -11.52): 2.417 and 3.403 and 2.6551 and 2.344 and 2.523 and 2.357 and 1.752 and 2.8723 and 2.669
- β-arrestin2 recruitment response at DRD2 (source data, replicate values) (DRD2 (D2 long receptor); Log[Drug] -12): 2.236 and 2.366 and 2.369 and 2.676 and 2.167 and 2.127 and 2.148 and 1.023 and 3.799
- Response, Fig_S11c dose-response (DRD2 (D2 long receptor); Log[Drug] -12): 2.236 and 2.366 and 2.369 and 2.676 and 2.167 and 2.127 and 2.148 and 1.023 and 3.799
- Ki (DRD2 F1103.28A [1]; DRD2 F1103.28A, read-out: Ki): 0.72 µM
- affinity increase (binding enhanced), mutant vs wild type (DRD2 F1103.28A [1]; DRD2 Phe110^3.28Ala vs wild-type DRD2): 2.64 fold
- EC50 (DRD2 F1103.28L): 0.204 µM
- Emax (DRD2 F1103.28L; read-out: Emax relative to quinpirole response): 4.32%
- Ki [2]: 1.91 µM and 1.9 µM
- EC50 (DRD2 F1103.28A [3]): > 10 µM
